Measured values reported in patent US11998539B2, “Substituted aminoquinolones as DGKalpha inhibitors for immune activation” (Bayer Aktiengesellschaft, priority 2019, dated 2024).

Target: DGKα (Homo sapiens (Human), UniProt P23743)
Assay: Human DGKα kinase activity inhibition assay (ADP-Glo)
Format: biochemical
Conditions: recombinant full-length human DGKα, 55 μM ATP, 7 μM 1,2-dioleoyl-sn-glycerol, read-out: IC50 values of examples in in vitro human DGKa kinase activity inhibition assays
How it was run: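 Activity was measured as ADP production, detected by luciferase luminescence after removal of unused ATP. The enzyme was baculovirus-expressed full-length human DGKα with a C-terminal FLAG tag. The substrate was 1,2-dioleoyl-sn-glycerol in detergent micelles, and compounds came from 100× DMSO solutions.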

Chain of DGKα (P23743 other isoform, or with tags, fused parts or gaps): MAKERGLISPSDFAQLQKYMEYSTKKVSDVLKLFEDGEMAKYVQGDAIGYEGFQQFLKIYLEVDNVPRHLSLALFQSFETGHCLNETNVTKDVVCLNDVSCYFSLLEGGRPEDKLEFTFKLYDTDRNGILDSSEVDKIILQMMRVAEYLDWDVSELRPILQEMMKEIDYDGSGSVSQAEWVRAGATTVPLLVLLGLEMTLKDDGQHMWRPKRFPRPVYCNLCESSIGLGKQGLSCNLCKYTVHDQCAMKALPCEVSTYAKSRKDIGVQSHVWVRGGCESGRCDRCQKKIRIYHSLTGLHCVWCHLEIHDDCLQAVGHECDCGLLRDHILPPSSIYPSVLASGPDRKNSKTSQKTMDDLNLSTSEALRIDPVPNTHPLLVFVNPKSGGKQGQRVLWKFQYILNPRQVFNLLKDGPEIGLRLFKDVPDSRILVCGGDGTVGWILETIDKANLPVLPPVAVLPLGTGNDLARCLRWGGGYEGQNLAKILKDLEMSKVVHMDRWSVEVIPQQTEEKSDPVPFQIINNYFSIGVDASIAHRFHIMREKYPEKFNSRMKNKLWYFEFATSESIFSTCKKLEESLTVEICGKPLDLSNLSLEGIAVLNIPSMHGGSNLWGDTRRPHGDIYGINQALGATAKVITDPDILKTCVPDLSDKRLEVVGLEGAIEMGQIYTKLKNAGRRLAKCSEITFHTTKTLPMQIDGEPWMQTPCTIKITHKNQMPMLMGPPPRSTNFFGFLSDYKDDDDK

| Compound | IC50 [nM] |
| --- | --- |
| Cn1c(=O)c(C#N)c(N2CCC(c3nc4ccccc4o3)CC2)c2ccc(C#N)cc21 [Example 275, 4-[4-(1,3-benzoxazol-2-yl)piperidin-1-yl]-1-methyl-2-oxo-1,2-dihydroquinoline-3,7-dicarbonitrile] | 172 |
| Cn1c(=O)c(C#N)c(N2CCC(c3nc4ccccc4s3)CC2)c2cc(C3CC3)ccc21 [Example 276, 4-[4-(1,3-benzothiazol-2-yl)piperidin-1-yl]-6-cyclopropyl-1-methyl-2-oxo-1,2-dihydroquinoline-3-carbonitrile] | 216 |
| Cc1ccc2oc(C3(C)CCN(c4c(C#N)c(=O)n(C)c5ccc(N6C[C@H](O)CC6=O)cc45)CC3)nc2c1 [Example 277, 6-[(4R)-4-hydroxy-2-oxopyrrolidin-1-yl]-1-methyl-4-[4-methyl-4-(5-methyl-1,3-benzoxazol-2-yl)piperidin-1-yl]-2-oxo-1,2-dihydroquinoline-3-carbonitrile] | 243 |
| Cc1ccc2oc(C3(C)CCN(c4c(C#N)c(=O)n(C)c5ccc(OC6CCC6)cc45)CC3)nc2c1 [Example 278, 6-(cyclobutyloxy)-1-methyl-4-[4-methyl-4-(5-methyl-1,3-benzoxazol-2-yl)piperidin-1-yl]-2-oxo-1,2-dihydroquinoline-3-carbonitrile] | 480 |
| CCCOc1ccc2c(c1)c(N1CCC(C)(c3nc4cc(C)ccc4o3)CC1)c(C#N)c(=O)n2C [Example 279, 1-methyl-4-[4-methyl-4-(5-methyl-1,3-benzoxazol-2-yl)piperidin-1-yl]-2-oxo-6-propoxy-1,2-dihydroquinoline-3-carbonitrile] | 1280 |
| Cc1ccc2oc(C3(C)CCN(c4c(C(N)=O)c(=O)n(C)c5ccc(N6C[C@H](O)CC6=O)cc45)CC3)nc2c1 [Example 280, 6-[(4R)-4-hydroxy-2-oxopyrrolidin-1-yl]-1-methyl-4-[4-methyl-4-(5-methyl-1,3-benzoxazol-2-yl)piperidin-1-yl]-2-oxo-1,2-dihydroquinoline-3-carboxamide] | 4740 |
| Cc1ccc2oc(C3CCN(c4c(C#N)c(=O)n(C)c5cc(Br)ccc45)CC3)nc2c1 [Example 281, 7-bromo-1-methyl-4-[4-(5-methyl-1,3-benzoxazol-2-yl)piperidin-1-yl]-2-oxo-1,2-dihydroquinoline-3-carbonitrile] | 8.9 |
| Cc1ccc2oc(C3CCN(c4c(C#N)c(=O)n(C)c5cc(P(C)(C)=O)ccc45)CC3)nc2c1 [Example 282, 7-(dimethylphosphoryl)-1-methyl-4-[4-(5-methyl-1,3-benzoxazol-2-yl)piperidin-1-yl]-2-oxo-1,2-dihydroquinoline-3-carbonitrile] | 872 |
| COCCc1ccc2oc(C3CCN(c4c(C#N)c(=O)n(C)c5ccccc45)CC3)nc2c1 [Example 283, 4-{4-[5-(2-methoxyethyl)-1,3-benzoxazol-2-yl]piperidin-1-yl}-1-methyl-2-oxo-1,2-dihydroquinoline-3-carbonitrile] | 6.8 |
| COCCc1ccc2nc(C3CCN(c4c(C#N)c(=O)n(C)c5ccccc45)CC3)oc2c1 [Example 284, 4-{4-[6-(2-methoxyethyl)-1,3-benzoxazol-2-yl]piperidin-1-yl}-1-methyl-2-oxo-1,2-dihydroquinoline-3-carbonitrile] | 9.3 |
| Cc1ccc2oc(C3(C)CCN(c4c(C#N)c(=O)n(C)c5cc(CC6COC6)ccc45)CC3)nc2c1 [Example 285, 1-methyl-4-[4-methyl-4-(5-methyl-1,3-benzoxazol-2-yl)piperidin-1-yl]-7-[(oxetan-3-yl)methyl]-2-oxo-1,2-dihydroquinoline-3-carbonitrile] | 10 |
| Cc1ccc2oc(C3(C)CCN(c4c(C#N)c(=O)n(C)c5ccc(CC6COC6)cc45)CC3)nc2c1 [Example 286, 1-methyl-4-[4-methyl-4-(5-methyl-1,3-benzoxazol-2-yl)piperidin-1-yl]-6-[(oxetan-3-yl)methyl]-2-oxo-1,2-dihydroquinoline-3-carbonitrile] | 374 |
| Cn1c(=O)c(C#N)c(N2CCC(c3nc4cc(C5COC5)ccc4o3)CC2)c2ccccc21 [Example 287, 1-methyl-4-{4-[5-(oxetan-3-yl)-1,3-benzoxazol-2-yl]piperidin-1-yl}-2-oxo-1,2-dihydroquinoline-3-carbonitrile] | 22 |
| Cc1ccc2oc(C3(C)CCN(c4c(C#N)c(=O)n(C)c5ccccc45)CC3)nc2c1 [Example 288, 1-methyl-4-[4-methyl-4-(5-methyl-1,3-benzoxazol-2-yl)piperidin-1-yl]-2-oxo-1,2-dihydroquinoline-3-carbonitrile] | 3.8 |
| Cc1ccc2oc(C3CCN(c4c(C#N)c(=O)n(C)c5cc(C(F)(F)F)ccc45)CC3)nc2c1 [Example 289, 1-methyl-4-[4-(5-methyl-1,3-benzoxazol-2-yl)piperidin-1-yl]-2-oxo-7-(trifluoromethyl)-1,2-dihydroquinoline-3-carbonitrile] | 8.3 |
| Cc1ccc2oc(C3(C)CCN(c4c(C#N)c(=O)n(C)c5cc(C(F)(F)F)ccc45)CC3)nc2c1 [Example 290, 1-methyl-4-[4-methyl-4-(5-methyl-1,3-benzoxazol-2-yl)piperidin-1-yl]-2-oxo-7-(trifluoromethyl)-1,2-dihydroquinoline-3-carbonitrile] | 10 |

| Compound | IC50 [nM] |
| --- | --- |
| Cn1c(=O)c(C#N)c(N2CCC(c3nc4ccccc4o3)CC2)c2ccc(C(F)(F)F)cc21 [Example 291, 4-[4-(1,3-benzoxazol-2-yl)piperidin-1-yl]-1-methyl-2-oxo-7-(trifluoromethyl)-1,2-dihydroquinoline-3-carbonitrile] | 11 |
| Cn1c(=O)c(C#N)c(N2CCC(C)(c3nc4ccccc4o3)CC2)c2ccc(C(F)(F)F)cc21 [Example 292, 4-[4-(1,3-benzoxazol-2-yl)-4-methylpiperidin-1-yl]-1-methyl-2-oxo-7-(trifluoromethyl)-1,2-dihydroquinoline-3-carbonitrile] | 3.2 |
| Cc1ccc2oc(C3CCN(c4c(C#N)c(=O)n(C)c5cc(O)ccc45)CC3)nc2c1 [Example 293, 7-hydroxy-1-methyl-4-[4-(5-methyl-1,3-benzoxazol-2-yl)piperidin-1-yl]-2-oxo-1,2-dihydroquinoline-3-carbonitrile] | 2.1 |
| Cn1c(=O)c(C#N)c(N2CCC(c3nc4ccc(Br)cc4o3)CC2)c2ccccc21 [Example 294, 4-[4-(6-bromo-1,3-benzoxazol-2-yl)piperidin-1-yl]-1-methyl-2-oxo-1,2-dihydroquinoline-3-carbonitrile] | 12 |
| COCCc1ccc2oc(C3CCN(c4c(C(N)=O)c(=O)n(C)c5ccccc45)CC3)nc2c1 [Example 295, 4-{4-[5-(2-methoxyethyl)-1,3-benzoxazol-2-yl]piperidin-1-yl}-1-methyl-2-oxo-1,2-dihydroquinoline-3-carboxamide] | 9.5 |
| Cn1c(=O)c(C(N)=O)c(N2CCC(C)(c3nc4ccccc4o3)CC2)c2cc(F)ccc21 [Example 296, 4-[4-(1,3-benzoxazol-2-yl)-4-methylpiperidin-1-yl]-6-fluoro-1-methyl-2-oxo-1,2-dihydroquinoline-3-carboxamide] | 0.5 |
| Cn1c(=O)c(C(N)=O)c(N2CCC(C)(c3nc4ccccc4o3)CC2)c2ccc(Cl)cc21 [Example 297, 4-[4-(1,3-benzoxazol-2-yl)-4-methylpiperidin-1-yl]-7-chloro-1-methyl-2-oxo-1,2-dihydroquinoline-3-carboxamide] | 0.6 |
| Cc1ccc2oc(C3CCN(c4c(C(N)=O)c(=O)n(C)c5ccc(F)cc45)CC3)nc2c1 [Example 298, 6-fluoro-1-methyl-4-[4-(5-methyl-1,3-benzoxazol-2-yl)piperidin-1-yl]-2-oxo-1,2-dihydroquinoline-3-carboxamide] | 0.5 |
| Cn1c(=O)c(C(N)=O)c(N2CCC(c3nc4ccccc4o3)CC2)c2cc(F)ccc21 [Example 299, 4-[4-(1,3-benzoxazol-2-yl)piperidin-1-yl]-6-fluoro-1-methyl-2-oxo-1,2-dihydroquinoline-3-carboxamide] | 1 |
| Cn1c(=O)c(C(N)=O)c(N2CCC(c3nc4ccccc4o3)CC2)c2ccc(Cl)cc21 [Example 300, 4-[4-(1,3-benzoxazol-2-yl)piperidin-1-yl]-7-chloro-1-methyl-2-oxo-1,2-dihydroquinoline-3-carboxamide] | 1.2 |
| Cc1ccc2oc(C3CCN(c4c(C(N)=O)c(=O)n(C)c5cc(Cl)ccc45)CC3)nc2c1 [Example 301, 7-chloro-1-methyl-4-[4-(5-methyl-1,3-benzoxazol-2-yl)piperidin-1-yl]-2-oxo-1,2-dihydroquinoline-3-carboxamide] | 1.4 |
| Cc1ccc2oc(C3(C)CCN(c4c(C(N)=O)c(=O)n(C)c5ccccc45)CC3)nc2c1 [Example 302, 1-methyl-4-[4-methyl-4-(5-methyl-1,3-benzoxazol-2-yl)piperidin-1-yl]-2-oxo-1,2-dihydroquinoline-3-carboxamide] | 1.1 |
| Cn1c(=O)c(C(N)=O)c(N2CCC(C)(c3nc4ccccc4o3)CC2)c2ccc(F)cc21 [Example 303, 4-[4-(1,3-benzoxazol-2-yl)-4-methylpiperidin-1-yl]-7-fluoro-1-methyl-2-oxo-1,2-dihydroquinoline-3-carboxamide] | 1.9 |
| Cc1ccc2oc(C3CCN(c4c(C(N)=O)c(=O)n(C)c5cc(F)ccc45)CC3)nc2c1 [Example 304, 7-fluoro-1-methyl-4-[4-(5-methyl-1,3-benzoxazol-2-yl)piperidin-1-yl]-2-oxo-1,2-dihydroquinoline-3-carboxamide] | 2.1 |
| Cn1c(=O)c(C(N)=O)c(N2CCC(c3nc4ccccc4o3)CC2)c2ccc(F)cc21 [Example 305, 4-[4-(1,3-benzoxazol-2-yl)piperidin-1-yl]-7-fluoro-1-methyl-2-oxo-1,2-dihydroquinoline-3-carboxamide] | 4.5 |
| Cn1c(=O)c(C(N)=O)c(N2CCC(C)(c3nc4ccccc4o3)CC2)c2ccc(C(F)(F)F)cc21 [Example 306, 4-[4-(1,3-benzoxazol-2-yl)-4-methylpiperidin-1-yl]-1-methyl-2-oxo-7-(trifluoromethyl)-1,2-dihydroquinoline-3-carboxamide] | 4.1 |
